Experimental data published in paper PMC12643063, “Mechanistic basis for inhibition of the extended‐spectrum β‐lactamase GES‐1 by enmetazobactam and tazobactam” (Febs Letters, 2025).

Assays:
[1] = biological target: T1, GES-1 (Guiana extended-spectrum β-lactamase 1) (Klebsiella pneumoniae, UniProt Q9KJY7); assay: ([…] Å), mass spectrometry; IC50 by nitrocefin hydrolysis, […] min pre-incubation; assay type: biochemical
T1 construct: pOPIN-F, expressed in SoluBL21 (DE3) E. coli

[2] = biological target: T1, GES-1 (Guiana extended-spectrum β-lactamase 1); assay: ([…] Å; […] Da aldehyde fragment on Ser70), mass spectrometry; IC50 by nitrocefin hydrolysis, […] min pre-incubation; assay type: biochemical

T1 sequence (Q9KJY7 18-287): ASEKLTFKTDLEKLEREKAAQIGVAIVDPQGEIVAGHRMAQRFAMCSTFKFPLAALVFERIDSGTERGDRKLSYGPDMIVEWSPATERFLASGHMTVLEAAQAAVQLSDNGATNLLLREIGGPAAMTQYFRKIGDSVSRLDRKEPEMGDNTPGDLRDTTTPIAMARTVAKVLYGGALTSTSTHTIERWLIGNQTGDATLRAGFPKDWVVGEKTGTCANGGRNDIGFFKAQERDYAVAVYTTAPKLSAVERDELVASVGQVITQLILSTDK

| SMILES | IC50 [1] | IC50 [2] |
| --- | --- | --- |
| C[n+]1ccn(C[C@@]2(C)[C@H](C(=O)O)N3C(=O)C[C@H]3S2(=O)=O)n1 [enmetazobactam] | 107 nM |  |
| C[C@]1(Cn2ccnn2)[C@H](C(=O)O)N2C(=O)C[C@H]2S1(=O)=O [tazobactam] |  | 444 nM |
